Data: patent US20130108628A1, “Method for treating cancer pain and/or rescuing analgesic effect of morphine treatment of cancer pain” (priority 2011, published 2013)
Entries after “also recorded” stand apart in the source; their conditions may differ. Peptide text beside a SMILES is read from it.

Key:
Type in all cases: in vivo, rat
EphB1 [1] = assay: Western blot of EphB1 and its phosphorylation in spinal cord of TCI rats; settings: for Increased levels of EphB1: exogenous MMP, no EphB2-Fc
Description: (§1) Protein precipitation procedures in conjunction with Western blots were employed to identify temporal expression of EphB1, ephrinB2 protein and their phosphorylation. Protocols were similar to those described previously (Liu W T, et al., FASEB J 2009; 23:90-8; Liu W T, et al., J Neurosci 2010; 30:7613-23). EphB1 and ephrinB2 were immunoprecipitated from 2 mg total protein/int tissue lysate using an anti-EphB1 antibody (2 μg; Santa Cruz Technology, SCT) complex with protine G-agarose (Invitrogen) and wheat germ agglutinin (WGA) linked to agarose (Sigma), respectively. EphrinB2 and its phosphorylation were detected using anti-ephrinB2 (C20, SCT) and anti-phosphotyrosine antibody PY99 (SCT), respectively (Georgakopoulos A, et al., EMBO J 2006; 25:1242-52). EphB1 and its phosphorylation were detected using anti-EphB1 antibody (Q20, SCT) and phosphotyrosine antibody 4G 10 (Upstate Biotechnology), respectively (Compagni A, et al., Dev Cell 2003; 5:217-30). NR2A immunoprecipitation was performed using anti-NR2A antibody followed by adsorption to protein G-agarose. Whole cell protein extracts lysates were used to identify temporal expression of the phosphorylated protein levels of NR1(pNR1), NR2B(pNR2B), Src(pSrc), ERK(pERK), CaMKII(pCaMKII), CREB(pCREB) and GAPDH. The primary antibodies were used include pNR1(Ser897), 1:800 (Millipore); pNR2B(Tyr1472), 1:300 (Chemicon); pSrc(Tyr418), 1:800 (Abeam, Cambridge, UK); pERK1/2(Thr202/Tyr204), 1:500; pCaMKII(Thr286), 1:1000 (Cell Signaling Technology); GAPDH, 1:1000 (Sigma); GFAP and pCREB (Ser133)(SCT). The filters were then developed using ECL reagents (Perkinelmer) with secondary antibodies (Chemicon). Data was analyzed with a Molecular Imager (Gel Doc™ XR, 170-8170) and the associated software Quantity One-4.6.5 (Bio-Rad Laboratories).

EphB1 [2] = assay: Western blot of EphB1 and pEphB1 in spinal cord of naive rats; settings: for Activation (phosphorylation) of EphB1 / Expression of EphB1 protein: exogenous MMP, no EphB2-Fc
Description: as §1

[3] = Morphine analgesia on thermal hyperalgesia in TCI rats
Description: Tumor cells were extracted from ascitic fluid of rats that received Walker-256 rat mammary gland carcinoma cells. Tumor cells implantation (TCI) was mimicked by injecting the cells (1×10^5 cells/μl, 5 μl) into the intra-medullary space of the right tibia to induce bone cancer in rats (Medhurst S J, et al., Pain 2002; 96:129-40).
Thermal hyperalgesia was determined by the significant shortened latency of foot withdrawal in response to heat stimulation. Mechanical allodynia was indicated by a significant decrease in the threshold of paw withdrawal to mechanical indentation of the plantar surface of each hindpaw. The protocols were similar to those described previously (Song X J, et al., J Neurophysiol 2006; 95:479-92; Wang Z B, et al., Pain 2005; 114:266-77).

EphB1 [4] = assay: Western blot of EphB1 after acute or chronic morphine treatment
Description: as §1

Molecule: MMP-9: exogenous matrix metalloproteinase-9 administered to rats
- Increased levels of EphB1 (EphB1 [1]): did not significantly alter
- Activation (phosphorylation) of EphB1 (EphB1 [2]): an increase rather than a decline
- Expression of EphB1 protein (EphB1 [2]): without altering

Molecule: CC(C)C[C@@H](NC(=O)[C@@H]1CCCN1C(=O)CNC(=O)c1ccc(N)cc1)C(=O)N[C@H](C)C(=O)NO [FN439] (HELM PEPTIDE1{[Nc1ccc(C(=O)[*:2])cc1].G.P.[dL].[dA].[ON[*:1]]}$$$$V2.0)
- EphB2-Fc-induced downregulation of EphB1 (EphB1 [1]; MMP2i 10 μg or FN439 100 μg): reversed; also recorded: completely prevented
- TCI-induced upregulation of EphB1, without EphB2-Fc treatment (EphB1 [1]; blocking MMP-2 or MMP-9): inhibited
- EphB2-Fc-induced downregulation of EphB1 (EphB1 [2]; MMP2i 10 μg or FN439 100 μg): reversed; also recorded: completely prevented
- EphB1 level, without EphB2-Fc treatment (EphB1 [2]; blocking MMP-2 or MMP-9): keeping EphB1 at its physiological levels

Molecule: CN1CC[C@]23c4c5ccc(O)c4O[C@H]2[C@@H](O)C=C[C@H]3[C@H]1C5 [morphine]
- Thermal hyperalgesia ([3]; morphine 10 mg/kg s.c. twice a day): significantly suppressed
- Time after which the analgesic effect decreased and disappeared (tolerance) ([3]; repeated morphine 10 mg/kg s.c. twice a day): 6 to 7 days
- Expression of EphB1 and its phosphorylation (EphB1 [4]; acute morphine treatment (100 mg/kg, then 10 mg/kg at 24 h)): significantly increased
- Expression of EphB1 and its phosphorylation (EphB1 [4]; acute morphine treatment (100 mg/kg, then 10 mg/kg at 24 h), listed as Mor): upregulates
- Expression of EphB1 and its phosphorylation (EphB1 [4]; chronic morphine treatment (10 mg/kg)): significantly increased

B1: MMP-2: exogenous matrix metalloproteinase-2 administered to rats (protein, UniProt P33436 110-662, looked up)
72 kDa type IV collagenase: YNFFPRKPKWDKNQITYRIIGYTPDLDPETVDDAFARALKVWSDVTPLRFSRIHDGEADIMINFGRWEHGDGYPFDGKDGLLAHAFAPGTGVGGDSHFDDDELWTLGEGQVVRVKYGNADGEYCKFPFLFNGREYSSCTDTGRSDGFLWCSTTYNFEKDGKYGFCPHEALFTMGGNGDGQPCKFPFRFQGTSYNSCTTEGRTDGYRWCGTTEDYDRDKKYGFCPETAMSTVGGNSEGAPCVFPFTFLGNKYESCTSAGRSDGKVWCATTTNYDDDRKWGFCPDQGYSLFLVAAHEFGHAMGLEHSQDPGALMAPIYTYTKNFRLSNDDIKGIQELYGPSPDADTDTGTGPTPTLGPVTPEICKQDIVFDGIAQIRGEIFFFKDRFIWRTVTPRDKPTGPLLVATFWPELPEKIDAVYEAPQEEKAVFFAGNEYWVYSASTLERGYPKPLTSLGLPPDVQQVDAAFNWSKNKKTYIFSGDKFWRYNEVKKKMDPGFPKLIADSWNAIPDNLDAVVDLQGGGHSYFFKGAYYLKLENQSLKSVKFGSIKSDWLGC
- Increased levels of EphB1 (EphB1 [1]): did not significantly alter
- Activation (phosphorylation) of EphB1 (EphB1 [2]): an increase rather than a decline
- Expression of EphB1 protein (EphB1 [2]): without altering
